Laboratory results taken from ChEMBL document CHEMBL1142999, “Discovery of potent, selective, orally active, nonpeptide inhibitors of human mast cell chymase” (J Med Chem, 2007).
The source made the active and inactive calls. No cut-off for these calls is given here.

How the values were obtained:
[1] = Oral bioavailability in rat; assay type: ADME, organism-based; details: in vivo
[2] = Half life in orally dosed rat; assay type: ADME, organism-based; details: in vivo, po
[3] = Cmax in rat; assay type: ADME, organism-based; details: in vivo
Syrian golden hamster [4] = assay: Antiinflammatory activity against carrageenan-induced paw inflammation in golden Syrian hamster at 30 mg/kg, po; assay type: functional; details: Mesocricetus auratus
Chymase (Homo sapiens) = molecular target: T1, Chymase (Homo sapiens) (UniProt P23946); assay: Inhibition of human skin chymase at 10 uM
T1 sequence (whole entry): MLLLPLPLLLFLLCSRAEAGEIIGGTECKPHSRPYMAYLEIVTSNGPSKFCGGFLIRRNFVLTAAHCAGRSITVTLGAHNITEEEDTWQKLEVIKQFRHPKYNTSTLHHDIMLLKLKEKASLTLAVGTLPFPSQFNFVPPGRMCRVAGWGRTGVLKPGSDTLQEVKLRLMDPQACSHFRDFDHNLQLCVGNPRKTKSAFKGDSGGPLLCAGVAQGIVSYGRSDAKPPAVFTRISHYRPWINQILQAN

[5] = molecular target: T2, Cathepsin G (Homo sapiens) (UniProt P08311); assay: Inhibition of human neutrophil Cat G at 100 uM
T2 sequence (whole entry): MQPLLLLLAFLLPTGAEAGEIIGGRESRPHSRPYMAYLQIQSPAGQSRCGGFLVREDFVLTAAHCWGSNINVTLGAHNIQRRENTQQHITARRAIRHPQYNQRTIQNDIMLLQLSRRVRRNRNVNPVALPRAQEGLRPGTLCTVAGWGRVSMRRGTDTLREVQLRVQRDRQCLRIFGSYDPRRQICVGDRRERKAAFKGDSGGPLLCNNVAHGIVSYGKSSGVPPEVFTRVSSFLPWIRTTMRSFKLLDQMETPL

Syrian golden hamster [6] = assay: Antiinflammatory activity against carrageenan-induced paw inflammation in golden Syrian hamster at 10 mg/kg, im; assay type: functional, organism-based; parameters: dose 10 mg/kg; details: Mesocricetus auratus
Cathepsin G = molecular target: T3, Cathepsin G (Homo sapiens, UniProt P08311); assay: Inhibition of human neutrophil Cat G
T3 sequence (P08311 whole entry): T2 sequence (whole entry)

Homo sapiens [7] = organism: Homo sapiens; assay: Inhibition of human chymotrypsin at 100 uM
Trypsin = Trypsin (Homo sapiens, UniProt P07477+P07478+P35030); assay: Inhibition of human trypsin; assay type: protein assay
Homo sapiens [8] = organism: Homo sapiens; assay: Inhibition of human beta-tryptase at 100 uM
Homo sapiens [9] = organism: Homo sapiens; assay: Inhibition of human alpha-thrombin at 100 uM
[10] = molecular target: Coagulation factor X (Homo sapiens) (UniProt P00742); assay: Inhibition of human factor Xa at 100 uM
Chain of Coagulation factor X (Homo sapiens) (P00742 41-179 limits assumed): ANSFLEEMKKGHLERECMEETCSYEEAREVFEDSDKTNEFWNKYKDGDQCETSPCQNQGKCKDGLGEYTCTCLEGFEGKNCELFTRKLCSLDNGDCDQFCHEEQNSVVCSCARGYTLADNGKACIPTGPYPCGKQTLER
Chain of Coagulation factor X (Homo sapiens) (P00742 235-488 limits assumed): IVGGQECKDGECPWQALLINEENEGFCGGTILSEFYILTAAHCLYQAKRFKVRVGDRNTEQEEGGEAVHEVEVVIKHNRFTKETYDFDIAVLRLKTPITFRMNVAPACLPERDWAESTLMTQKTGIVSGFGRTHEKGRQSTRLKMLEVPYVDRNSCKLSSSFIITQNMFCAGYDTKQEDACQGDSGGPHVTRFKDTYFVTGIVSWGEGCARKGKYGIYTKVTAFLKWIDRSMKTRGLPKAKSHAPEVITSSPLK

[11] = molecular target: T4, Coagulation factor VII (Homo sapiens) (UniProt P08709); assay: Inhibition of human factor VIIa at 100 uM
T4 sequence (whole entry): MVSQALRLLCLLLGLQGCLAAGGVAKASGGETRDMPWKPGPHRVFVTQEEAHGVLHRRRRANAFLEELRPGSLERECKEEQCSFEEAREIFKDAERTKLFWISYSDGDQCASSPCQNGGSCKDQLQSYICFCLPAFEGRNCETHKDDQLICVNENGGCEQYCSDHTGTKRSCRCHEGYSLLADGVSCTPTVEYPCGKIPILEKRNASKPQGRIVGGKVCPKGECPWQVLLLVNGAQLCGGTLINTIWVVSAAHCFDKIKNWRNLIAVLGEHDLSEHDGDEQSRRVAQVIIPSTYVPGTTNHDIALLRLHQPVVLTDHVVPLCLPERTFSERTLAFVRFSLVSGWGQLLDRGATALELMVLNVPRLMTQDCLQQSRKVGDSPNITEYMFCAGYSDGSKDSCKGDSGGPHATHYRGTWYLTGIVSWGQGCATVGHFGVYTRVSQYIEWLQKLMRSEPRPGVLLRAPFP

[12] = molecular target: T5, Neutrophil elastase (Homo sapiens) (UniProt P08246); assay: Inhibition of human leukocyte elastase at 100 uM
T5 sequence (whole entry): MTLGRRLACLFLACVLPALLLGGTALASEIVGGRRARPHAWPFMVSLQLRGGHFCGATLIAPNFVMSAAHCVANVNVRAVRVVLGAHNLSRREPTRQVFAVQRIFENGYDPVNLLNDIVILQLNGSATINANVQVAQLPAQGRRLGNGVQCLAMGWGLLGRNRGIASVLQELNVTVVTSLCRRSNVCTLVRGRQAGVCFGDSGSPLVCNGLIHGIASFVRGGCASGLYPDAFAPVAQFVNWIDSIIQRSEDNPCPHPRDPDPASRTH

`CP(=O)(O)C(C(=O)N/C=C/c1cc(F)cc(Cl)c1)c1csc2ccc(Cl)cc12` (configuration not stated) gave a bioavailability [1] of 39%, a half-life [2] of 4.5 h and a Cmax [3] of 6 µM. For the same compound, the inhibition in vivo at 30 mg/kg (Syrian golden hamster [4]) was 50%.

For `O=C(Nc1ccc2ccccc2c1)C(n1nnc2ccccc21)P(=O)(O)O` (configuration not stated), the inhibition (Chymase (Homo sapiens)) was under 50%.

For `O=C(Nc1ccc2ccccc2c1)C(c1cccc2ccccc12)P(=O)(O)O` (configuration not stated), the inhibition [5] was 0%.

With `C[C@@H]1C[C@H]2[C@@H]3CCC4=CC(=O)C=C[C@]4(C)[C@@]3(F)[C@@H](O)C[C@]2(C)[C@@]1(O)C(=O)CO` the Activity (Syrian golden hamster [6]) was “Active”.

`O=C(Nc1ccc2ccccc2c1)C(c1csc2ccc(Cl)cc12)P(=O)(O)O` (configuration not stated) gave a Ki (Cathepsin G) of 9.5 µM, a bioavailability [1] of 3% and a half-life [2] of 1.8 h. For the same compound, the inhibition (Homo sapiens [7]) was under 50%, the IC50 (Trypsin) was 12 µM and the inhibition (Homo sapiens [8]) was under 50%. It also gave an inhibition (Homo sapiens [9]) of under 50%, an inhibition [10] of under 50% and an inhibition [11] of under 50%. It also gave an inhibition [12] of under 50%.
